The values that follow come from patent US20050153303A1, “Method of mutagenic chain reaction” (priority 2003, published 2005).

Where “and” joins values, the source holds several entries; their conditions need not be identical. Equal values may be shown once. Read-outs that look alike come from different tables or passages of the source.

One test addresses T1, Ventr (exo-) polymerase (Thermococcus litoralis, UniProt P30317, D141A/DEL1082-1471/DEL495-1032/E143A).
T1 construct: purchased New England Biolabs
Type of test: biochemical. The following applies: for Amplification yield (% of C+): Ventr (exo-), 0.5 mM MnCl2. The method, then: (§1) Control PCR condition: 2 units of Vent exo^−DNA polymerase were used in a 50 μL reaction volume containing 200 μM of each dNTPs, 10mM KCl, 10mM (NH4)2SO4, […] pH 8.8, 2mM MgSO4, 0.1% Triton™ X-100, 0.2 μM of each primers and 10ng of plasmid DNA. PCR were performed in a GeneAmp PCR system 9700 (Perkin-Elmer) as follows: 5 min at 95° C. (first denaturation), followed by 30 cycles of polymerisation [30 s at 95° C. (denaturation), 30 s at 65° C. (annealing) , 2 min at 72° C. (polymerisation)].
(§2) When a modified dNTPs ratio was used, fmal concentrations were 200 μM for dATP and dTTP and 800 μM for dCTP and dGTP.
Enzymatic activity of DNA polymerases has been determined by ethidium bromide staining of 1% agarose gel. Band intensity of 2 μL aliquots of amplicon issued from mutagenic PCR were compared to the intensity of bands obtained from several dilutions of standard PCR.
In order to assess the impact of the chemical stress induced by alcohols and urea on PCR, we measured the amplification yield was measured and compared it to that of a standard PCR. The size of a library generated by error-prone PCR is proportional to the amplification yield, therefore it is of a paramount importance to maintain the amplification yield as high as possible. Concentration of alcohol leading to a reduction in amplification yield was detected were chosen to determine their impact on amplified sequences. Such concentrations were defined as “critical” concentration of alcohol.

Test [1] deals with Deep Ventr (exo-) polymerase (Pyrococcus sp., UniProt Q51334, D141A/DEL493-1029/E143A). In kind it is biochemical, Pyrococcus species GB-D.
Chain of Deep Ventr (exo-) polymerase (Q51334 other isoform, or with tags, fused parts or gaps D141A/E143A/DEL493-1029): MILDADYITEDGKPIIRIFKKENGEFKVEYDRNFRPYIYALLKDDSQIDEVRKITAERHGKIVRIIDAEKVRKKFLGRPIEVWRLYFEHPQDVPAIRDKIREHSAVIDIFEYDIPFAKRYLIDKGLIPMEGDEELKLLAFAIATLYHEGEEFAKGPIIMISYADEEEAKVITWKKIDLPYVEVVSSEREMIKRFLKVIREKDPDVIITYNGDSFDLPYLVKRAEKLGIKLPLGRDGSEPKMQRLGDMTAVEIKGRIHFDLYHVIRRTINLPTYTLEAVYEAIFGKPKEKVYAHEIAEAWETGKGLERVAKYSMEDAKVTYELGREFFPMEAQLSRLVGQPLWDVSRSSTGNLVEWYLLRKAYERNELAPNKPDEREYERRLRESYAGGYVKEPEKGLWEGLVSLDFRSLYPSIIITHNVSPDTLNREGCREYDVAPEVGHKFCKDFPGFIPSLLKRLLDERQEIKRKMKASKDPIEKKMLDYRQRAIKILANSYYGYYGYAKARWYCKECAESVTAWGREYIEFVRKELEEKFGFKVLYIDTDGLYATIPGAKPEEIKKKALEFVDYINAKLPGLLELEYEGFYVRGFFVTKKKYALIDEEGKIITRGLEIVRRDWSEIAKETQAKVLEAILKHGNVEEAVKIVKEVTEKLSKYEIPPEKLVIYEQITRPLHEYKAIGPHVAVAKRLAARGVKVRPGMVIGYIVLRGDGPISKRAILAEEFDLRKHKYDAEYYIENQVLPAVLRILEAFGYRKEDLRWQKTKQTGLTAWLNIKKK
Test [2] deals with T2, Ventr (exo-) DNA polymerase (Thermococcus litoralis, UniProt P30317, D141A/DEL1082-1471/DEL495-1032/E143A).
T2 construct: purchased New England Biolabs
T2 sequence (P30317 other isoform, or with tags, fused parts or gaps D141A/E143A/DEL495-1032/DEL1082-1471): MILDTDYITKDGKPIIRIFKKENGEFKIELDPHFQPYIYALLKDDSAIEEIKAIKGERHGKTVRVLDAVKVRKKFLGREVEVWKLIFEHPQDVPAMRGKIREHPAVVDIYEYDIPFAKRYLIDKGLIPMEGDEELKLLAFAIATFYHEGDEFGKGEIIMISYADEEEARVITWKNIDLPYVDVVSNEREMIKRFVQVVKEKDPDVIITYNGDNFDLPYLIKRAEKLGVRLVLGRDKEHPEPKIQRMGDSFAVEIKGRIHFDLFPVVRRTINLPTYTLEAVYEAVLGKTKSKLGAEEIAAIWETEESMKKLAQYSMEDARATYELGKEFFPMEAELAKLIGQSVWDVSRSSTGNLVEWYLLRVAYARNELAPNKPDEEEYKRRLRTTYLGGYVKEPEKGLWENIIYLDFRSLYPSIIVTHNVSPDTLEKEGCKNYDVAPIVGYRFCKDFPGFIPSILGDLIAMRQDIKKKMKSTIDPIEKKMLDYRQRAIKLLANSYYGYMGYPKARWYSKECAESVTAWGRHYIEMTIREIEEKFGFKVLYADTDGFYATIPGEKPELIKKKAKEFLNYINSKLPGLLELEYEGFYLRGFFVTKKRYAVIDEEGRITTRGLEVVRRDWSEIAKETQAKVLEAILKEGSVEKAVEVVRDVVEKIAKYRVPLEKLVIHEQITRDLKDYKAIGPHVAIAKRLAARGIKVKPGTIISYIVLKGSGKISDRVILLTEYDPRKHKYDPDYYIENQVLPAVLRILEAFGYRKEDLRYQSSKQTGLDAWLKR
In kind it is biochemical. The method, then:
The template used for PCR is the gene coding for MB-1 His (384 bp) (Grundy J. et al., (1998) Journal of Biotechnology, 63:9-15) cloned in the 6.6kb pMAL-c2 vector (New England Biolabs, cat no. M0257S). The template was obtained by plasmid purification of E. coli with XL-1 Blue (Stratagene) Miniprep protocol (Qiagen) and quantified using UV spectrometry.
as §1, §2
pMAL-c2 vector (New England Biolabs) was digested with SacI and HindIII endonucleases (New England Biolabs) and gel purified (1% agarose) using Qiaex gel extraction kit (Qiagen) and Agarose A from LAB MAT. The 384 bp PCR products were also gel purified. […] The purified products were then concatenated in a kination/ligation using T4 Polynucleotide kinase and T4 DNA ligase (New England Biolabs) for 3 hours at room temperature followed by a restriction digestion using SacI and HindIII endonucleases for 5 hours at 37° C. Then, the digested PCR products were purified using PCR purification kit (Qiagen) and ligated with pMAL-c2 vector using T4 DNA ligase at 16° C. overnight.
5 μL of ligation product mixed with 50 μL of E. coli XL-1 Blue hypercompetent cells were incubated on ice for 30 min, heatshocked at 42° C. for 45 sec and re-incubated on ice for 2 min. Then, 1mL of SOC medium was added and the mixture was incubated for 1 hour at 37° C. with shaking. Transformed Cells were then selected on LB agar plates containing 100 μg/mL ampicillin.
Plasmids from transformant colonies were purified with Qiaprep Spin miniprep kit (Qiagen) and digested with SacI/HindIII to confirm the presence of the 384 bp fragment corresponding to MB-1 His gene. Plasmids were then sequenced by the dye-terminator method (Service d'analyse et de synthèse, Université Laval). Complete sequences were analysed with LFASTA software (Chao K. M. (1998), Comput. Appl. Biosci., 8:481-487), allowing for comparison of control and mutated DNA. Mutation rate and mutation types were calculated from such a comparison.

A further test concerns the target Taq polymerase (Thermus aquaticus, UniProt P19821). Type of test: biochemical.
Test [3] concerns the target T3, Taq DNA polymerase (Thermus aquaticus, UniProt P19821). Type of test: biochemical.
For test [4], the target named is T3, Taq DNA polymerase. The following applies: 0.5 mM MnCl2, Equimolar dNTPs. How it is done:
(§3) 100ng of genomic DNA from Actinobacillus pleuropneumoniae was used as template. PCR cycles were as follows: 7 min at 95° C., then 30 cycles of polymerisation [45 s at 95° C., 45 s at 53° C., 1 min at 72°^C].

The target of test [5] is T2, Ventr (exo-) DNA polymerase. The test can be described thus: PCR measuring maximal length of amplification. Type of test: biochemical. The method, then: as §3
Where [6] appears, read: Ventr (exo-) polymerase, concentration leading to reduction in amplification yield.
Setting [7] is: concentration leading to reduction in amplification yield.
Where [8] appears, read: Taq polymerase, concentration leading to reduction in amplification yield.
The mark [9] stands for this setting: Ventr (exo-), 0.5 mM MnCl2, AG/CT = 1/4.
Setting [10] is: Ventr (exo-), 0.5 mM MnCl2, AG/CT = 1/4, % of total mutations.
Setting [11] is: Ventr (exo-), 0.5 mM MnCl2, AT/GC = 1/4.
[12] abbreviates: Ventr (exo-), 0.5 mM MnCl2, AT/GC = 1/4, % of total mutations.
[13] abbreviates: Ventr (exo-), 0.5 mM MnCl2, Equimolar dNTPs.
Where [14] appears, read: Ventr (exo-), 0.5 mM MnCl2, Equimolar dNTPs, % of total mutations.
The mark [15] stands for this setting: Ventr (exo-), 0.5 mM MnCl2, Equimolar dNTPs, listed as manganese.
Setting [16] is: Taq, 0.5 mM MnCl2, Equimolar dNTPs.
Setting [17] is: Taq, 0.5 mM MnCl2, Equimolar dNTPs, % of total mutations.

T1 sequence (P30317 other isoform, or with tags, fused parts or gaps D141A/E143A/DEL495-1032/DEL1082-1471): as above
T3 sequence (P19821 whole entry): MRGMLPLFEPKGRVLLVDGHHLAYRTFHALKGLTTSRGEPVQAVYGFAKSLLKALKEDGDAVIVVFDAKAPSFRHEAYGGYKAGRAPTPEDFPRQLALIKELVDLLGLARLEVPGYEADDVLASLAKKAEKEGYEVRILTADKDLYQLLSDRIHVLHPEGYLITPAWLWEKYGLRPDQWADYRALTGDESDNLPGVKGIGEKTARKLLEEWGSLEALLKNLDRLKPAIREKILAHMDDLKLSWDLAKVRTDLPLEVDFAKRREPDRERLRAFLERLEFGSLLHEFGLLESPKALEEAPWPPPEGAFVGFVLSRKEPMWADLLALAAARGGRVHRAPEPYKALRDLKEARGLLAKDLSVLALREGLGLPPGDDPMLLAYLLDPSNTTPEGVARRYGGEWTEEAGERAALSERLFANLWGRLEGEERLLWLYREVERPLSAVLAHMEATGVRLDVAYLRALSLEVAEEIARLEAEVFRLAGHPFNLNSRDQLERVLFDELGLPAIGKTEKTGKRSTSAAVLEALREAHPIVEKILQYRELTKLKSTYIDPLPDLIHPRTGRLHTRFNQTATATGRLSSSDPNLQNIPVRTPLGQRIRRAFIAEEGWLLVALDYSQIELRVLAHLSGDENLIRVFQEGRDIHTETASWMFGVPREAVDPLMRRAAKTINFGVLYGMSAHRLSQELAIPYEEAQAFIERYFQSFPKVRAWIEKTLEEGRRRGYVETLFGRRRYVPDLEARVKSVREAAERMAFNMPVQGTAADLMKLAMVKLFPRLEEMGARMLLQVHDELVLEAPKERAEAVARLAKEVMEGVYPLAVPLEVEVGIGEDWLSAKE
Chain of Taq polymerase (P19821 whole entry): as above

`CC(C)O` [Isopropanol] yielded a Critical concentration at Ventr (exo-) polymerase (setting [6]) of 10.0 % v/v.
The molecule `CCCO` [Propanol, 1-propanol] had a Critical concentration in test [1] (setting [7]) of 8.0 % v/v. Also, in test [2], the “Bias indicator A, T turns N” value is 25% and 24% and 14%; the “Bias indicator G, C turns N” value was 67% and 62% and 86%; the “Bias indicator N turns A, T” value was 67% and 71%; the “Mutation Frequency” value is 0.98% and 0.27% and 0.58%. For the same molecule, the “mutation of guanines and cytosines, of total mutations” value in test [2] is listed as 67%. For the same molecule, at Ventr (exo-) polymerase, the Critical concentration is 8.0 % v/v and the polymerisation activity entry was “no polymerisation activity”. On Taq polymerase, the “Amplification yield (% of C+)” value is given as 50 % of C+, the Critical concentration is given as 2.5 % v/v and the polymerisation activity entry is reported as “no polymerisation activity”. Moreover, on Taq DNA polymerase [3], the “Deletion Frequency” value came to 0.04%, the “Mutation Frequency” value stood at 0.13% and the mutations found is 3.
As to `NC(N)=O` [Urea], the Critical concentration in test [1] (setting [7]) was 1.5 % v/v; in test [1] (in molar), “(0.25 M)”; at Ventr (exo-) polymerase (setting [6]) it was 1.5 % v/v; at Ventr (exo-) polymerase (Ventr (exo-) polymerase, in molar), “(0.25 M)”; on Taq polymerase (setting [8]), 1.2 % v/v; at Taq polymerase (Taq polymerase, in molar), “(0.20 M)”. Besides, the “mutation detected in PCR” value in test [2] (Ventr (exo-), critical concentration of urea, more than 2000 nucleotides sequenced) was “did not detect mutation”; at Taq DNA polymerase [3] (Taq, critical concentration of urea, more than 2000 nucleotides sequenced), “did not detect mutation”.
Butanol: the results for the Critical concentration (in test [1] (setting [7]); at Ventr (exo-) polymerase (setting [6]); on Taq polymerase (setting [8])) were 6.0 % v/v, 4.0 % v/v and 1.0 % v/v, respectively.
With manganese chloride [MnCl2], the “Deletion Frequency” value in test [2] (setting [9]) is 0.03%; in test [2] (setting [11]), 0.00%; in test [2] (setting [13]), 0.00%; in test [2] (setting [15]), “without insertion or deletion”; on Taq DNA polymerase [3] (setting [16]) it was 0.04%. Also, the “Mutation Frequency” value in test [2] (setting [9]) stood at 2.30%; in test [2] (setting [11]), 0.52%; in test [2] (setting [13]) it was 3.70%; in test [2] (setting [15]), 3.7%; on Taq DNA polymerase [3] (setting [16]), 8.48%. The “Bias indicator A, T turns N” value in test [2] (setting [10]) worked out at 30%; in test [2] (setting [12]), 88%; in test [2] (setting [14]), 23%; on Taq DNA polymerase [3] (setting [17]), 72%. For the same molecule, the “Bias indicator G, C turns N” value is 67% in test [2] (setting [10]), 12% in test [2] (setting [12]), 77% in test [2] (setting [14]) and 24% on Taq DNA polymerase [3] (setting [17]). In addition, the “Bias indicator N turns A, T” value in test [2] (setting [10]) worked out at 73%; in test [2] (setting [12]), 25%; in test [2] (setting [14]), 83%; on Taq DNA polymerase [3] (setting [17]) it was 43%. Moreover, the “Amplification yield (% of C+)” value on Ventr (exo-) polymerase (AG/CT = 1/4), on Ventr (exo-) polymerase (AT/GC = 1/4), on Ventr (exo-) polymerase (Equimolar dNTPs) and on Taq polymerase (setting [16]) was 75 % of C+ each time. The “Maximal lenght of amplification” value amounted to 0.4 kb on Taq DNA polymerase [4]; 0.8 kb in test [5] (0.5 mM MnCl2, AG/CT = 1/4); 1.6 kb in test [5] (0.5 mM MnCl2, AT/GC = 1/4); 0.8 kb in test [5] (0.5 mM MnCl2, Equimolar dNTPs).
